Measured values taken from US20220089540A1 (Board of Trustees of Michigan State University, priority 2019, published 2022).

Legend:
[1] = tested on: CD3 T cells; assay: CD8 subpopulations in isolated spleen CD3 T cells (flow cytometry); assay type: cell-based, mouse; details: anti-CD3ε, 3 days
Protocol: Cells were cultured for a total of 3 days.
Yellow zombie (Biolegend) staining was used to exclude dead cells.

[2] = tested on: PD-L1; assay: PD-L1 induction in macrophages or RAW264.7 cells with cancer cell conditioned media (flow cytometry); assay type: cell-based, mouse; details: for PD-L1 Levels: Table 4, Control 43.3
Protocol: (§1) RAW 264.7 mouse macrophage-like (ATCC) and E18-14C-27 (Wu et al., Cancer Res. 62, 6376-6380 (2002)) cells were cultured in DMEM supplemented with 10% fetal bovine serum (FBS). RAW 264.7 cells were cultured at 50000/well in a 6 well plate for 24 hours to determine PD-L1 levels. E18-14C-27 cells were cultured for 72 hours in the presence of LG268 for protein levels. Conditioned media was collected from E18-14C-27 at 60-70% confluence for 24 hours; media was then collected and centrifuged at 900 rpm for 5 minutes to eliminate any cell debris.
(§2) For PD-L1 staining, RAW 264.7 cells were plated at 25000 cells/ml in 6 well plates for 24 hours before adding conditioned media from E18-14C-27 and LG268. RAW 264.7 cells were cultured for additional 24 hours with E18-14C-27 conditioned media and LG268. […] THP-1 cells were stained and analyzed for the levels of PD-L1 following the same protocol.
Inhibitory receptors on lymphocytes such as PD-1 (programmed cell death protein 1) are important immune checkpoints that protect against autoimmunity as the interaction between PD-L1 (ligand) and the PD-1 receptor expressed on immune cells suppresses T cell activity. Immuno-oncology is revolutionizing cancer treatment, and enormous research efforts are ongoing to identify drugs that upregulate PD-L1 so that they can be combined with checkpoint inhibitors to boost efficacy. Macrophages or RAW264.7 cells are treated with conditioned media from cancer cells and rexinoids, and PD-L1 expression determined by flow cytometry. Higher numbers indicate better upregulation of PD-LI.
Using methods described herein, macrophages or RAW264.7 cells were treated with selected rexinoids and with conditioned media from cancer cells. Structures of the rexinoids are shown below.
PD-L1 expression was determined by flow cytometry.

[3] = tested on: PD-L1; assay: PD-L1 in THP-1 cells stimulated with SK-BR-3 conditioned media (flow cytometry); assay type: cell-based, human; details: 24 hours
Protocol: THP-1 (ATCC) cells were cultured in RPMI supplemented with 5% FBS, and SK-BR-3 (ATCC) cells were cultured in DMEM supplemented with 10% FBS. THP-1 cells were cultured at 50000/well in a 6 well plate for 24 hours to determine PD-L1 levels with conditioned media from SK-BR-3 cells. Culturing SK-BR-3 cells at 60-70% confluence for 24 hours generated conditioned media; media was then collected and centrifuged at 900 rpm for 5 minutes to eliminate any cell debris. THP-1 cells were then plated at 100000 cells/well with the conditioned media, LG268 was added simultaneously.
as §2

[4] = tested on: E18-14C-27C cancer cells; assay: PD-1 and PD-L1 expression in E18-14C-27C cancer cells; assay type: cell-based, mouse; details: 72 hours
Protocol: as §1
To determine if these changes occurred in the tumor cells or in the macrophages, E18-14C-27C and RAW 264.7 cell lines were treated with LG268. […] Similar observations were made in human THP-1 monocytic cells stimulated with conditioned media from human HER2 positive SK-BR-3 breast cancer cells and treated with LG268 or bexarotene for 24 hours (FIG. 5E-5F).

[5] = tested on: tumors of PyMT mice; assay: PyMT mice, 15-day protocol with or without anti-PD-L1 antibodies; assay type: in vivo, mouse
Protocol: To evaluate if LG268 treatment would have immunomodulatory effects, PyMT mice with a tumor volume of 32-64 mm^3 were treated with LG268 (100 mg/kg of diet) or control diet for 14 days (FIG. 7A). Mice were euthanized at day 15, and tumor, intact mammary gland and spleen were analyzed by flow cytometry, immunohistochemistry and immunoblotting (whole tumor lysates). At day 15, mice treated with LG268 presented higher levels of PD-L1 when compared with control mice (FIG. 7D-7E).
The inventors tested whether the combination of an immune checkpoint inhibitor and LG268 for the treatment of PyMT tumors would further increase the infiltration of cytotoxic CD8 T cells. PyMT mice with 32-64 mm3 mice were treated by intraperitoneal injection with anti-PD-L1 (40 μg/mouse) or isotype control antibodies on days 3, 7 and 11, in combination with LG268 or control diet (FIG. 7A).

[6] = tested on: inducible nitric oxide synthase (iNOS); assay: iNOS suppression / NO assay in LPS-stimulated macrophages or RAW264.7 cells (Griess reaction); assay type: cell-based, mouse; details: at 100 nM; comparators of Table 3
Summary of the method: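 RAW264.7 cells or macrophages incubated with rexinoids (300 nM, or 100 nM/300 nM, or a concentration series) and stimulated with 1–2 ng/ml LPS for 24 h. Nitric oxide released into medium measured by Griess reaction; values given as percent of LPS-stimulated control, % inhibition, or IC50.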

[7] = Toxicity in A/J mice with lung tumors fed rexinoids plus carboplatin and paclitaxel; assay type: in vivo; details: 100 mg/kg diet, 7 weeks
Protocol: A/J mice with lung tumors (detected by ultrasound) were fed rexinoids in their diets (at 100 mg/kg diet) and injected twice every other week with carboplatin and paclitaxel.

[8] = tested on: RAR receptor; details: cited from earlier work
[9] = molecular target: RXR; details: read-out: Kd for RXR; cited from earlier work
[10] = tested on: FOXP3; assay: FOXP3 mRNA in isolated spleen CD4 T cells skewed towards Tregs; details: LG268 added for 4 days

Cc1cc2c(cc1C1(c3ccc(C(=O)O)cn3)CC1)C(C)(C)CCC2(C)C [LG268]
CD8 naive and central memory cells [1]: increased percentage | PD-L1 Levels ([2]; 100 nM): 66.7 | PD-L1 Levels ([2]; 1000 nM): 77 | PD-L1 levels in RAW 264.7 cells with E18-14C-27C conditioned media ([2]; 24 hours): increased levels | PD-L1 levels in THP-1 human macrophages [3]: increases | PD-L1 expression ([4]; flow cytometry): did not change | PD-1 expression ([4]; western blot): decreased | PD-L1 levels in tumors vs control ([5]; 100 mg/kg diet, day 15): higher levels | immune cell populations infiltrating to the tumors ([5]; LG268 alone, day 15): did not induce any changes | spleen weight vs control diet ([5]; LG268 only): significant decrease | iNOS [6]: 15-30% at 100 nM | toxicity findings (liver, triglycerides, cholesterol, fur) [7]: hepatomegaly, with elevated triglycerides and cholesterol | binding to the RAR receptor [8]: does not bind | Kd [9]: […] | reduction of FOXP3 mRNA expression vs vehicle control [10]: 40%
